Data on one compound can be found in patent US7888042B2, “Methods for identifying insulin mimetics” (Ohio University, priority 2005, dated 2011).

For one test, the system named is 3T3-L1 adipocytes. As to the kind of experiment: Glucose uptake assay in 3T3-L1 adipocytes. Format: cell-based. Here is the method: Chemical synthesis yields both the α- and β-anomers of PGG. (B) Glucose transport stimulatory activity (13, 14) of PGG was assessed by incubating adipocytes in 6-well plates with insulin or PGG for 15 min followed by the addition of [^3H]-2-deoxy-D-glucose for 10 min before quantifying uptake (13, n=3, mean±SD, Two way-ANOVA, * P<0.05; ** P<0.01). α-PGG (●); β-PGG (□); insulin (∘). (C) Glucose transport induced by insulin in the presence of α-PGG. One […] of insulin was added to adipocytes in the presence of increasing amounts of α-PGG. After induction, radioactive glucose was added, and the glucose taken up by the cells was counted.
Reagents, compound synthesis, and glucose uptake assay. Bovine insulin was purchased from Sigma. PGG, in an approximate 1:1 mixture of α- and β-PGG, was synthesized from glucose in the non-radioactive form as described (22). The identity of the compounds was confirmed by MS and NMR. The compounds were dissolved in double distilled water (ddH2O), filter sterilized, and stored as a 10 mM aqueous stock solution at −20° C. The stock solutions were diluted to final concentrations with sterile ddH2O. Glucose uptake assays in 3T3-L1 adipocytes induced by PGG were performed as described (13).

For the next test, the system named is IR. The test is described as follows: IR phosphorylation, Western blot. It counts as cell-based, Chinese hamster. To be noted: CHO-IR cells, 20 or 40 μM, 15 min. The method, then: (§1) (A) Glucose transport was measured by determining [^3H]-2-deoxyglucose uptake stimulated by either insulin or α-PGG in 3T3-L1 cells in the presence or absence of HNMPA-(AM)3, an inhibitor of IR tyrosine kinase activity (24); wortmannin, an inhibitor of PI 3-kinase (25), or cytochalasin B, an inhibitor of GLUT4 (26), (n=4, mean±SD). (B) Cells were induced by 20 or 40 μM α-PGG or 100 nM insulin for 15 min. Cell lysates were separated by PAGE and analyzed for phosphorylation of IR (in CHO-IR cells) or Akt (in adipocytes) using antibodies specific to the target proteins. (C) Cells were treated with α-PGG and insulin in a fashion similar to (B) and assayed for their respective PI-3 kinase activity with a radioactive TLC method (27). (D) In similar experiments, intact cells were analyzed by confocal microscopy for translocation of GLUT4 using anti-GLUT4 antibodies.
(§2) Protein phosphorylation/activation and GLUT4 translocation. To investigate signal transduction induced by α-PGG, proteins from 3T3-L1 adipocytes or CHO-IR cells (23), which were treated with α-PGG or insulin for 15 min, were isolated, separated by PAGE, blotted on nylon membranes, and analyzed by Western blotting with antibodies against either IR or Akt. […]
A general note: Immunoblotting shows a protein as a band on a membrane.

The test system of another test is PI-3 kinase. The test is described as follows: PI-3 kinase activity, radioactive TLC method. Format: cell-based. The following applies: CHO-IR cells. Here is the method:
as §1, §2

In test [1] the test system is ob/ob mice. The test is described as follows: Glucose tolerance test in ob/ob mice, oral dose. Format: in vivo. The method, then:
(§3) Either 6-8 week old male db/db mice or 8-12 week old male ob/ob mice were treated with aqueous solutions of α-PGG by either oral delivery (˜10 μL, A & B) or ip injection (˜50 μL, C, & D). (n=8-10, mean±SD, one-way ANOVA). α-PGG (●); vehicle (∘). α-PGG (20 mg/kg) was orally delivered without glucose to fasting db/db mice (A *, P<0.02; **, P<0.01; ***, P<0.001) or with glucose (0.4 g/kg body weight) to fasting ob/ob mice (B, glucose tolerance test). α-PGG (20 mg/kg) was ip injected into ob/ob mice on day 0 and day 4 (C). A single ip injection (20 mg/kg) of α-PGG was administered to ob/ob mice (D). Glucose (A, B, C) or insulin (D) was determined from sera or plasma isolated from tail vein blood. Animal studies. Genetically diabetic db/db mice or obese ob/ob mice were purchased from Jackson Lab. Male mice of 2-3 months of age were used. Unless otherwise stated, 10 mice (N=10) were used per group. α-PGG was either orally administered or intraperitoneally (ip) injected in the form of an aqueous solution at 20 mg/kg body weight with a 1-cc sterile plastic syringe. At different times after the α-PGG administration, blood or plasma was collected from the tail vein for measurement of glucose and insulin concentrations using commercial kits. Vehicle (aqueous solution) treated mice were used as controls and were statistically compared with the α-PGG treated mice. All animal studies were conducted in accord with the Ohio University guidelines for the use and care of laboratory animals.

Test [2] deals with ob/ob mice. As to the kind of experiment: Plasma insulin in ob/ob mice, ip injection. To be noted: single ip injection 20 mg/kg. Format: in vivo. Here is the method: as §3, with “All animal studies were conducted in accord with the Ohio University guidelines for the use and care of laboratory animals.” left out

A word on the EC50: it is the concentration that produces a half-maximal response. `O=C(OC[C@H]1O[C@H](OC(=O)c2cc(O)c(O)c(O)c2)[C@H](OC(=O)c2cc(O)c(O)c(O)c2)[C@@H](OC(=O)c2cc(O)c(O)c(O)c2)[C@@H]1OC(=O)c1cc(O)c(O)c(O)c1)c1cc(O)c(O)c(O)c1` [α-PGG, alpha 1,2,3,4,6-penta-O-galloyl-D-Glucopyranose]: the “induction of glucose transport” value in the test on 3T3-L1 adipocytes (3T3-L1 adipocytes, [3H]-2-deoxy-D-glucose uptake, 15 min incubation) was “induced glucose transport in adipocytes in a dose-dependent manner”. In addition, in the test on 3T3-L1 adipocytes (15-30 μM concentration range, P<0.05 at 15 μM, P<0.01 at 30 μM), the “glucose transport activity, more active than β-PGG” value is on record as 10-20%. In addition, the EC50 in the test with 3T3-L1 adipocytes (Mus musculus, 3T3-L1, estimated, printed 13 μM±2 μM, read-out: EC50 for glucose transport activity) is 13 µM. In addition, the “glucose transport induced by insulin on addition of α-PGG” value in the test on 3T3-L1 adipocytes (insulin plus increasing amounts of α-PGG) is “reduced the glucose transport activity induced by insulin towards that of α-PGG”. The “phosphorylation of the IR” value with IR is recorded as “induces the phosphorylation of the IR”. For the same compound, the PI-3 kinase activity entry with PI-3 kinase is given as “activates PI-3 kinase”. In the test on ob/ob mice [1] (oral 20 mg/kg), the “duration of blood glucose difference” value is listed as “at least 5 h” and the “largest difference in glucose levels vs control group” value was “about 20%”. In addition, the glucose tolerance result with ob/ob mice [1] (single oral dose 20 mg/kg with glucose 0.4 g/kg) is listed as “significantly improved”. Besides, in the test on ob/ob mice [2] (hyperinsulinemic ob/ob mice), the plasma insulin levels result was “significantly lower”. In the test with ob/ob mice [2] (ob/ob mice), the “duration of anti-hyperinsulinemic effects” value was “at least 24 hours”.
